The values below come from US20130261077A1 (priority 2012, published 2013).

For the assay, the target named is T1, FimH-CRD (Escherichia coli, UniProt P08191).
T1 construct: The first 177 amino acids of the FimH protein; thrombin tag (printed as 'fusion protein with thrombin') (cleaved yes); made in house; host or cells: bacteria (pET21b plasmid)
T1 sequence (P08191 22-177): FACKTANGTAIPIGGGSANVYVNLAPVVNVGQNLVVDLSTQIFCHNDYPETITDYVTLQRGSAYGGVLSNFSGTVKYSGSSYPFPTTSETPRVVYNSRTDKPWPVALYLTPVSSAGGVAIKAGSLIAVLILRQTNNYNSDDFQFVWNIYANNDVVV
In words: Competitive binding assay by fluorescence polarization, assay 1 (compounds prepared by manual serial dilution). As to the method: The first 177 amino acids of the FimH protein were expressed as a fusion protein with thrombin in a pET21b plasmid in bacteria. This FimH protein sequence contains the carbohydrate recognition domain (CRD) and shall be termed FimH-CRD. Following bacterial expression of the protein, the FimH-CRD protein was purified to homogeneity and the thrombin tag removed by protease cleavage. A competitive binding assay by fluorescence polarization was performed using 5 nM of the Alexa 647 mannoside probe and 60 nM of the FimH-CRD. The samples are assayed in a low volume 384 well microtiter plate in a final volume of 20 μl. The final assay buffer conditions are the following, 50 mM Tris-Cl, ph 7.0, 100 mM NaCl, 1 mM EDTA, 5 mM β-mercaptoethanol, 0.05% BSA and 2.5% DMSO. Two assays are performed for FimH, termed assay 1 or assay 2. The assay conditions are the same for both assays except the following: assay 1 has compounds prepared by manual dilution in a serial dilution factor with 12-point dose response while assay 2 has compounds prepared by a robotics system also through a serial dilution factor (12 point dose response) and initially prepared in duplicate in 384 well-Corning polypropylene round bottom plates. The assay 2 plates have compound which is then frozen and must be thawed prior to use. Initially the Alexa 647 probe and the FimH-CRD are added to the assay buffer and then 0.5 μl of test compound (assay 1 or 2) between 0.4 nM to 75 μM final concentration are added (12 point titration with 3-fold serial dilution). Control wells for the Alexa 647 probe are prepared with the same conditions except for the addition of the FimH-CRD protein. Plates are then incubated for 5 hrs at room temperature in the dark and under humid conditions to prevent drying. Plates are read using the SpectraMax Paradigm multi-mode plate reader and the appropriate fluorescent polarization detection cartridge (Alexa-647).
Alexa 647 mannoside probe is prepared using the similar procedure reported for FAM mannoside (Han, Z. et. al., 2010, J. Med. Chem., 53, 4779) and is described in the scheme below.
To a blue colored stirred solution of (2S,3S,4S,5S,6R)-2-(4-aminobutoxy)-6-(hydroxymethyl)tetrahydropyran-3,4,5-triol (2.21 mg, 0.009 mmol) and the (2E)-2-[(2E,4E)-5-[3,3-dimethyl-5-sulfonato-1-(3-sulfonatopropyl)indol-1-ium-2-yl]penta-2,4-dienylidene]-3-[6-(2,5-dioxopyrrolidin-1-yl)oxy-6-oxo-hexyl]-3-methyl-1-(3-sulfonatopropyl)indoline-5-sulfonate (Potassium Ion (3)) (4.9 mg, 0.0044 mmol) in DMF (44 μL) is added Et3N (5.4 mg, 7.0 μL, 0.053 mmol) at RT. The solution is stirred at room temperature over night, concentrated, dissolved in water and purified on 12 g C-18 silica gel cartridge on Isolera system using acetonitrile in water (0 to 40%, 10 CV) and followed by lyophilization to afford Alexa 647 mannoside probe (3.3 mg, 34%) as deep blue solid.
The Kd values of the compounds are determined from dose response curves using twelve concentrations per compound in duplicate. Curves are fitted to data points using Fluorescence Polarization competitive displacement analysis, and Kds are interpolated from the resulting curves using GraphPad Prism software, version […] (GraphPad software Inc., San Diego, Calif., USA).
The IC50 is the point on the concentration scale where inhibition reaches its midpoint. Low readings indicate greater potency, high ones weaker potency. A word on the Kd: it is the concentration at which binding is half-saturated. Read a high Kd as lower affinity. The compound `O=C(Nc1ccccc1)c1cccc([C@H]2O[C@H](CO)[C@@H](O)[C@H](O)[C@@H]2O)c1` [Compound 23, N-phenyl-3-[(2R,3S,4R,5S,6R)-3,4,5-trihydroxy-6-(hydroxymethyl)tetrahydropyran-2-yl]benzamide] came in with a half-inhibitory concentration (IC50) of 0.016 µM and a Kd of 0.0384 ± 0.0236 µM. As to `OC[C@H]1O[C@H](c2ccccc2O)[C@@H](O)[C@@H](O)[C@@H]1O` [Compound 45, (2R,3S,4R,5S,6R)-2-(hydroxymethyl)-6-(2-hydroxyphenyl)tetrahydropyran-3,4,5-triol], the half-maximal inhibitory concentration (IC50) came to 0.183 µM and the Kd was found to be 0.0769 ± 0.0491 µM. The like results for `Cc1nnc(-c2ccc(Oc3cccc([C@H]4O[C@H](CO)[C@@H](O)[C@H](O[C@H]5O[C@H](CO)[C@@H](O)[C@H](O)[C@@H]5O)[C@@H]4O)c3)cc2)o1` [Compound 272, (2R,3S,4S,5S,6R)-2-[(2R,3R,4R,5R,6R)-3,5-Dihydroxy-2-(hydroxymethyl)-6-[3-[4-(5-methyl-1,3,4-oxadiazol-2-yl)phenoxy]phenyl]tetrahydropyran-4-yl]oxy-6-(hydroxymethyl)tetrahydropyran-3,4,5-triol] were, in that order, 0.046 µM and 0.0127 ± 0.0077 µM.

For `OC[C@H]1O[C@H](c2ccc(Cl)c(O)c2)[C@@H](O)[C@@H](O)[C@@H]1O` [Compound 67, (2R,3S,4R,5S,6R)-2-(4-chloro-3-hydroxyphenyl)-6-(hydroxymethyl)tetrahydro-2H-pyran-3,4,5-triol], the 50% inhibitory concentration (IC50) amounted to 0.106 µM and the affinity, expressed as Kd, was 0.021 ± 0.0043 µM. The like results for `OCc1ccccc1-c1cccc([C@H]2O[C@H](CO)[C@@H](O)[C@H](O)[C@@H]2O)c1` [Compound 13, (2R,3S,4R,5S,6R)-2-(hydroxymethyl)-6-(2′-(hydroxymethyl)-[1,1′-biphenyl]-3-yl)tetrahydro-2H-pyran-3,4,5-triol] were, in that order, 0.195 µM and 0.0399 ± 0.0236 µM. The matching figures for `CNC(=O)c1cccc(Oc2cccc([C@H]3O[C@H](CO)[C@@H](O)[C@H](O[C@H]4O[C@H](CO)[C@@H](O)[C@H](O)[C@@H]4O)[C@@H]3O)c2)c1` [Compound 269, 3-[3-[(2R,3R,4R,5R,6R)-3,5-Dihydroxy-6-(hydroxymethyl)-4-[(2R,3S,4S,5S,6R)-3,4,5-trihydroxy-6-(hydroxymethyl)tetrahydropyran-2-yl]oxy-tetrahydropyran-2-yl]phenoxy]-N-methyl-benzamide]: 0.01 µM and less than 0.005 µM.

The compound `CC(C)C(=O)Nc1ccc(-c2cccc([C@H]3O[C@H](CO)[C@@H](O)[C@H](O)[C@@H]3O)c2)cc1` [Compound 49, 2-methyl-N-[4-[3-[(2R,3S,4R,5S,6R)-3,4,5-trihydroxy-6-(hydroxymethyl)tetrahydropyran-2-yl]phenyl]phenyl]propanamide] gave an IC50 of 0.045 µM and a Kd of 0.0063 ± 0.0014 µM.

For the compound `OC[C@H]1O[C@H](c2cccc(Oc3ccc(F)cc3)c2)[C@@H](O)[C@@H](O)[C@@H]1O` [Compound 57, (2R,3S,4R,5S,6R)-2-[3-(4-fluorophenoxy)phenyl]-6-(hydroxymethyl)tetrahydropyran-3,4,5-triol], the IC50 was determined as 0.076 µM and binding was characterised by a dissociation constant (Kd) of 0.0132 ± 0.0002 µM.

Consider `OC[C@H]1O[C@H](c2cccc(/C=C\c3ccccc3)c2)[C@@H](O)[C@@H](O)[C@@H]1O` [Compound 139, (2R,3S,4R,5S,6R)-2-(hydroxymethyl)-6-[3-[(Z)-styryl]phenyl]tetrahydropyran-3,4,5-triol], for which the equilibrium dissociation constant (Kd) was less than 0.005 µM. As to `OC[C@H]1O[C@H](O[C@@H]2[C@H](O)[C@@H](c3cccc(Oc4ccccc4)c3)O[C@H](CO)[C@H]2O)[C@@H](O)[C@@H](O)[C@@H]1O` [Compound 271, (2R,3S,4S,5S,6R)-2-[(2R,3R,4R,5R,6R)-3,5-Dihydroxy-2-(hydroxymethyl)-6-(3-phenoxyphenyl)tetrahydropyran-4-yl]oxy-6-(hydroxymethyl)tetrahydropyran-3,4,5-triol], the IC50 stood at 0.027 µM and the dissociation constant (Kd) was 0.0147 ± 0.007 µM.
